Here are results for one molecule from ChEMBL document CHEMBL5550169, “A consensus reverse docking approach for identification of a competitive inhibitor of acetyltransferase enhanced intracellular survival protein from Mycobacterium tuberculosis” (Bioorg Med Chem, 2024).

Usually MIC stands for the lowest concentration that inhibits growth of the organism. As usually defined, the Cmax is the maximum level reached in the sampled fluid or tissue. In general, Tmax refers to the time from dosing to the highest level.

Converted amounts (≈) assume the structure as drawn. Some results are limits rather than exact numbers.

The subject of data set [1] is Mycobacterium tuberculosis. Description: Antibacterial activity against Mycobacterium tuberculosis H37Rv assessed as reduction in pellet formation measured after 7 to 14 days by alamar blue assay. The class given is functional. Conditions: time 7-14 day.
Data set [2] is described as follows: Cmax in female BALB/c mouse plasma at 100 mg/kg, po administered as single dose via oral gavage and measured upto 24 hrs by LC-MS analysis. Type of data set: ADME, organism-based.
Data set [3] is described as follows: Cmax in female BALB/c mouse lungs at 100 mg/kg, po administered as single dose via oral gavage and measured upto 24 hrs by LC-MS analysis. The class given is ADME, organism-based. The following applies: lung.
Data set [4] in a line: Tmax in female BALB/c mouse lungs at 100 mg/kg, po administered as single dose via oral gavage and measured upto 24 hrs by LC-MS analysis. The following applies: lung. Type of data set: ADME, organism-based.
Data set [5] concerns Mycobacterium tuberculosis. Description: Antibacterial activity against Mycobacterium tuberculosis IAR2 assessed as reduction in pellet formation measured after 7 to 14 days by alamar blue assay. The class given is functional. The following applies: time 7-14 day. On the technique in general: Resazurin is reduced to fluorescent resorufin, in cell work by metabolically active cells.

Data set [6] in a line: Tmax in female BALB/c mouse plasma at 100 mg/kg, po administered as single dose via oral gavage and measured upto 24 hrs by LC-MS analysis. Type of data set: ADME, organism-based.

As for `Cc1cc(C)c2c(C(=O)NC3CCCCCCC3)c[nH]c2c1`, the MIC in data set [1] was 4 ng/mL (≈ 0.0134 µM); in data set [5] it was not below 250 ng/mL. Moreover, the Cmax in data set [2] was found to be 490 ng/mL; in data set [3], 2470 ng/mL. The Tmax stood at 4 h in data set [4] and 2 h in data set [6].
